Measurements from US9085593B2, “Therapeutic agent for arthrosis” (SANSHO CO., LTD., priority 2011, dated 2015).
“And” between values parts separate entries of the source, which are not always exact repeats. Identical values can stand only once.

Assays:
[1] = system: osteoarthritis in rabbit knee; test: Pain assessment (weight distribution across both hind limbs), rabbit knee osteoarthritis model; format: in vivo, rabbits (Kbs:NZW); settings: for Weight distribution, Mean / Left hind limb / Right hind limb / Weight distribution (%) on treated limb (right hind limb): 10 μg/rabbit into joint cavity; for Weight distribution, Mean: group mean n=6; for Left hind limb / Right hind limb / Weight distribution (%) on treated limb (right hind limb): individual animals 201-206, listed as Test substance, sodium salt
Method: (§1) Twelve 11- to 12-week-old male rabbits (Kbs:NZW) were used. Rabbits were reared in separate cages (one rabbit per cage) at 14.4° C. to 24.9° C. under light (12 hours from 7:00 am to 7:00 pm) with continuous ventilation. Rabbits were allowed to eat 150 g of feed (CR-3, CLEA Japan, Inc.) per day and to drink tap water.
(§2) (9Z)-9-Octadecenoic acid-(2-hydroxy-2-oxide-1,2-oxaphospholan-4-yl)methyl ester sodium salt (C18:1-cPA; hereafter, referred to as “ScPA”) was used.
(§3) Hair in the vicinity of the knee joint of the right hind limb of a rabbit was shaved using electrical clippers under deep anesthesia, and the shaved area was disinfected with Isodine. The outer coat on the medial aspect of the right hind limb was incised with a surgical knife, the boundary between the medial aspect and the articular capsule of the patellofemoral ligament was further incised, and the medial patellofemoral ligament was then dissected. Thereafter, the articular capsule was spread wide open to expose the medial meniscus, which was then completely removed. Following the removal of the meniscus, tissue and epidermis in the vicinity of the articular capsule were sutured. At the time of suturing, the site of operation was washed with physiological saline (titer: 500 mg/20 ml) containing antibiotics (Viccillin, Meiji Seika Pharma Co., Ltd.).
(§4) After the model animals were prepared, they were divided into two groups each consisting of 6 individuals while averaging body […] (i.e., the vehicle administered group of Animal Numbers 101 to 106 and the test substance (ScPA) administered group of Animal Numbers 201 to 206).
(§5) The test compound and the vehicle were administered in the manner described below. • Route of administration: into the joint cavity • Site of administration: right hind limb (treated limb) • Timing of administration: on days 7, 11, 14, 18, 21, 25, 28, 32, 35, and 39 • Dosage: Test compound: 10 μg/rabbit (volume: 0.2 ml) • Vehicle: 0.2 ml/rabbit • Means of administration: with the use of a 1.0-ml syringe (Terumo Corporation) and a 27 G injection needle (Terumo Corporation) (1-5) Pain Assessment (Weight Distribution Across both Hind Limbs) Frequency of Measurement:
Measurement was carried out seven times in total: i.e., before treatment and 1, 2, 3, 4, 5, and 6 weeks after the treatment.
Body weights loaded on the right hind limb and the left hind limb were separately measured using a weight scale, and the weight distribution on the treated limb (the right hind limb) was determined using the following equation. Weight distribution (%) on treated limb (right hind limb)=[right hind limb (kg)/(right hind limb (kg)+left hind limb (kg))]×100 (1-6) Swelling Assessment (Articular Swelling of both Hind Limbs) Frequency of Measurement: […]

[2] = system: osteoarthritis in rabbit knee; test: Swelling assessment (articular swelling of both hind limbs), rabbit knee osteoarthritis model; format: in vivo, rabbits (Kbs:NZW)
Method: as §1, §2, §3, §4, §5
Measurement was carried out 6 weeks after the treatment.
The widest areas at the joints of the right and left hind limbs were measured using digital calipers, and the articular swelling induced by osteoarthritis was determined using the following equation. Swelling (%) of treated limb (right hind limb)=[(right hind limb (mm)−left hind limb (mm))/(left hind limb (mm)[…])]×100 (1-7) Sampling of Biomaterials (day 42) and Post-Sampling Treatment

[3] = joint width, 10 μg/rabbit into joint cavity, Day 42, individual animals 201-206, listed as Test substance, sodium salt

## CCCCCCCC/C=C\CCCCCCCC(=O)OCC1COP(=O)([O-])C1.[Na+] (stereo not shown) [ScPA, (9Z)-9-Octadecenoic acid-(2-hydroxy-2-oxide-1,2-oxaphospholan-4-yl)methyl ester sodium salt]
[1]; Day 0 (before treatment)
  Weight distribution, Mean: 49.1%
  Left hind limb: 610 g and 400 g and 550 g and 460 g and 260 g and 310 g
  Right hind limb: 660 g and 320 g and 410 g and 490 g and 270 g and 350 g
  Weight distribution (%) on treated limb (right hind limb): 52% (2×) and 44% and 43% and 51% and 53%
[1]; Day 7
  Weight distribution, Mean: 32.1%
  Left hind limb: 1010 g and 410 g and 900 g and 750 g (2×) and 880 g
  Right hind limb: 660 g and 160 g and 140 g and 520 g and 430 g and 460 g
  Weight distribution (%) on treated limb (right hind limb): 40% and 28% and 13% and 41% and 33% and 38%
[1]; Day 14
  Weight distribution, Mean: 39.4%
  Left hind limb: 770 g and 400 g and 640 g and 810 g and 700 g and 600 g
  Right hind limb: 520 g and 200 g and 320 g and 630 g and 380 g and 610 g
  Weight distribution (%) on treated limb (right hind limb): 40% and 33% (2×) and 44% and 35% and 50%
[1]; Day 21
  Weight distribution, Mean: 43.0%
  Left hind limb: 710 g and 440 g and 350 g and 580 g (2×) and 760 g
  Right hind limb: 380 g and 370 g and 720 g and 250 g and 450 g and 440 g
  Weight distribution (%) on treated limb (right hind limb): 35% and 46% and 67% and 30% and 37% and 43%
[1]; Day 28
  Weight distribution, Mean: 47.0%
  Left hind limb: 700 g and 290 g and 260 g and 750 g and 710 g and 800 g
  Right hind limb: 600 g (2×) and 150 g and 390 g and 660 g and 780 g
  Weight distribution (%) on treated limb (right hind limb): 46% (2×) and 34% and 60% and 47% and 49%
[1]; Day 35
  Weight distribution, Mean: 39.1%
  Left hind limb: 650 g and 800 g and 470 g and 1030 g and 570 g and 870 g
  Right hind limb: 350 g (2×) and 380 g and 630 g and 560 g and 510 g
  Weight distribution (%) on treated limb (right hind limb): 35% and 30% and 45% and 38% and 50% and 37%
[1]; Day 42, p=0.0053 vs vehicle
  Weight distribution, Mean: 46.7%
[1]; Day 42
  Left hind limb: 620 g and 700 g and 380 g and 820 g and 840 g and 580 g
  Right hind limb: 440 g and 510 g and 630 g and 660 g and 520 g and 610 g
  Weight distribution (%) on treated limb (right hind limb): 42% (2×) and 62% and 45% and 38% and 51%
[1]; after day 14 up to day 42
  weight loaded on the treated limb (the right hind limb) compared with the vehicle administered group: maintained at higher levels
[2]; 10 μg/rabbit into joint cavity, Day 42, group mean n=6, p=0.0164 vs vehicle
  Swelling, Mean: 0.6%
[2]; 10 μg/rabbit into joint cavity, Day 42, individual animals 201-206, listed as Test substance, sodium salt
  Swelling (%) of treated limb (right hind limb): −1.75% and 1.58% and 3.72% and −5.46% and 6.59% and −1.97%
[2]; day 42, p=0.0164
  articular swelling compared with the vehicle administered group: inhibited more significantly
[2]; [3]
  Left hind limb (mm): 24.60 mm and 23.38 mm and 21.50 mm and 22.88 mm and 23.21 mm and 21.79 mm
  Right hind limb (mm): 24.17 mm and 23.75 mm and 22.30 mm and 21.63 mm and 24.74 mm and 21.36 mm
